The values that follow come from patent publication US8614201B2 (Janssen Pharmaceutica NV, priority 2009, dated 2013).

Chain of Human TRPA1 (O75762 whole entry): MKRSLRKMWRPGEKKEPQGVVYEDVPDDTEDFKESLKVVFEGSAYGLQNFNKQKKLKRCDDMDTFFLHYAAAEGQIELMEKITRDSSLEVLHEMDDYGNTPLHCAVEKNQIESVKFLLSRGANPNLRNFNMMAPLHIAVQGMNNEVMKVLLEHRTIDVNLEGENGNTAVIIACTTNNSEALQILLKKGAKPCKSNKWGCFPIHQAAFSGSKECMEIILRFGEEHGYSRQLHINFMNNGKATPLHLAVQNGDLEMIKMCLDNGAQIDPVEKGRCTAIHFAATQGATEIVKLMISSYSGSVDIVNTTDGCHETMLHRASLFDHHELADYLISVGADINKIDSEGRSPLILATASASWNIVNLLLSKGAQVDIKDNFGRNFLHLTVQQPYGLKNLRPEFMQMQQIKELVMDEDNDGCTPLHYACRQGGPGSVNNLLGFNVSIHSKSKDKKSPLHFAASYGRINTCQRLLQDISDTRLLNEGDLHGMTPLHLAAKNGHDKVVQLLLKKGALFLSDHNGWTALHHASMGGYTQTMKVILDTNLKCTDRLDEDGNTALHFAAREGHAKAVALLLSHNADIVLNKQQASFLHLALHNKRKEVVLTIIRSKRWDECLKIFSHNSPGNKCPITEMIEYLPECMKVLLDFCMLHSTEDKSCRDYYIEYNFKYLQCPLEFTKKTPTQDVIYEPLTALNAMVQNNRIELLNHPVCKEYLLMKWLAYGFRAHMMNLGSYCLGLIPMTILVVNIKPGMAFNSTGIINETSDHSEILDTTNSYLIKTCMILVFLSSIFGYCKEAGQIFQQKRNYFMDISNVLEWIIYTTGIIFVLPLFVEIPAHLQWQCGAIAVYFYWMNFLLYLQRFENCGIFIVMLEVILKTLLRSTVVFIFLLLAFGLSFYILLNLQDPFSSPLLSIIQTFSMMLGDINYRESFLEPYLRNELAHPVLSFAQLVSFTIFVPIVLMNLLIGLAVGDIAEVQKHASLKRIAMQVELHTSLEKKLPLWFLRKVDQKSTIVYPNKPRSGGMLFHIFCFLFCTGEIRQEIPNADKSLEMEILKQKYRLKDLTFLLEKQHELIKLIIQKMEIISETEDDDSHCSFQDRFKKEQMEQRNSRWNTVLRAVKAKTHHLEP

The test has as its target Human TRPA1 (Homo sapiens, UniProt O75762). Description: Alternative TRPA1 Ca2+ fluorometry assay (hTRPA1/TREx-HEK293 cells, Fluo-4, FDSS 6000). Format: cell-based. The arrangement: expressed in transfected cells. Conditions: Fluo-4-AM, agonist 6,11-dihydro-5H-dibenzo[b,e]azepine-10-carboxylic acid methyl ester 25 nM, procedure used for Examples 184, 190 to 192, 194 to 316. Here is the method:
In alternative embodiments, the assay was performed using the following procedure for Examples 184, 190 to 192, and 194 to 316:
The human TRPA1 gene was cloned into the pT-Rex-Dest30 inducible vector and stably transfected in T-Rex™-293 cells (Invitrogen, Merelbeke, Belgium). This tetracycline inducible hTRPA1 expression system was used in order to prevent CA^2+ overload in the cultured cells due to sustained TRPA1 expression. hTRPA1/TREx-HEK293 cells (referred to as jTRPA1 cells in the following text) were maintained under standard sterile cell culture conditions. The culture medium for the jTRPA1-HEK cells was DMEN (Gibco BRL, Invitrogen, Merelbeke, Belgium) supplemented with 5 g/l gengticin (Gibco), 5 mL/l blasticidin (Invitorgen), 14.6 g/l L-Glutamine (200 mMl; Gibco), 5 g/l penicillin/streptomycin (5.10-6 IU/I, Gibco), 5.5 g/l pyruvic acid (Gibco) and 10% foetal calf serum (Hyclone, Logan Utah, USA).
For Ca^2+ fluorometry experiments, hTRPA1-HEK cells were resuspended in HBSS seeding medium: HBSS (with CaCl2 and MgCl2: Gibco) supplemented with 14.6 g/l L-Glutamine (200 mM; Gibco), 5 g/l penicillin/streptomycin (5.10-6 IU/l. Gibco), 5.5 g/l pyruvic acid (Gibco) and 10% foetal calf serum (heat inactivated for 30 minutes at 56° C.; Hyclone, Logan Utah, USA). The cells were seeded in poly-D-lysine-coated 384-well round bottom polypropylene plates (Costar Corning, Data Packaging, Cambridge Mass., USA) at 12000 cells/well. Fifty ng/ml tetracycline was added to induce the hTRPA1 expression 24 h before the experiment.
The cells were loaded with 5 mg/l Fluo-4-AM (Molecular Probes, Invitorgen, Merelbeke, Belgium) dissolved in HBSS seeding medium supplemented with 0.7 g/l Probenecid (Sigma) and incubated for 1 h at 37° C. and subsequently at 20° C. for 1 to 2 h. The fluorescence was measured in the FDSS 6000 imaging based plate reader (Hamamutsu Photonics K.K., Hamamutsu City, Japan). The excitation wavelength was 488 nm and the emission wavelength 540 nm. After a control period of 12 seconds the inventive compounds were added and the Ca^2+ signal was measured within 14 minutes after application. Finally, a TRPA1 agonist, 6,11-dihydro-5H-dibenzo[b,e]azepine-10-carboxylic acid methyl ester, was added at a final concentration of 25 nM. The emission ratio was calculated by dividing the emission signal (Em540) by the first EM540 signal of the control period to compensate for the background fluorescence. […] For intracellular Ca^2+ measurements, a compound stock solution (10 to 100 mM) was further diluted in DMSO in order to obtain a final 1% DMSO concentration in the extracellular solution.
Consider `CCOC(=O)C1CCN(c2nc(CNC(=O)[C@@H]3CCCN3S(=O)(=O)c3ccc(F)cc3)cc(-c3ccc(C(F)(F)F)cc3)n2)CC1` (racemic) [Example 194, 1-[4-({[1-(4-Fluoro-benzenesulfonyl)-pyrrolidine-2S-carbonyl]-amino}-methyl)-6-(4-trifluoromethyl-phenyl)-pyrimidin-2-yl]-piperidine-4(R,S)-carboxylic acid ethyl ester], for which the concentration for half-maximal inhibition (IC50) – broadly, the point on the concentration scale where inhibition reaches its midpoint – turned out to be 0.575 µM.

Compound `O=C(NCc1cc(-c2ccc(C(F)(F)F)cc2)nc(C(F)(F)F)n1)[C@@H]1CCCN1S(=O)(=O)c1ccc(F)cc1` [Example 184, 1-(4-Fluoro-benzenesulfonyl)-pyrrolidine-2S-carboxylic acid [2-trifluoromethyl-6-(4-trifluoromethyl-phenyl)-pyrimidin-4-ylmethyl]-amide] registered an IC50 of around 0.033 µM.

The compound `O=C(NCc1cc(-c2ccc(C(F)(F)F)cc2)nc(N2CCC[C@H]2CO)n1)[C@@H]1CCCN1S(=O)(=O)c1ccc(F)cc1` [Example 190, 1-(4-Fluoro-benzenesulfonyl)-pyrrolidine-2S-carboxylic acid [2-(2S-hydroxymethyl-pyrrolidin-1-yl)-6-(4-trifluoromethyl-phenyl)-pyrimidin-4-ylmethyl]-amide] gave a concentration for half-maximal inhibition (IC50) of around 1.95 µM.

`O=C(NCc1cc(-c2ccc(C(F)(F)F)cc2)nc(N[C@@H](CO)Cc2ccccc2)n1)[C@@H]1CCCN1S(=O)(=O)c1ccc(F)cc1` [Example 191, 1-(4-Fluoro-benzenesulfonyl)-pyrrolidine-2S-carboxylic acid [2-(1S-hydroxymethyl-2-phenyl-ethylamino)-6-(4-trifluoromethyl-phenyl)-pyrimidin-4-ylmethyl]-amide] displayed an IC50 of 2.14 µM.

In turn, `O=C(NCc1cc(-c2ccc(C(F)(F)F)cc2)nc(NC2CC2)n1)[C@@H]1CCCN1S(=O)(=O)c1ccc(F)cc1` [Example 192, 1-(4-Fluoro-benzenesulfonyl)-pyrrolidine-2S-carboxylic acid [2-cyclopropylamino-6-(4-trifluoromethyl-phenyl)-pyrimidin-4-ylmethyl]-amide] came in with an IC50 of around 0.588 µM.

For the compound `O=C(NCc1cc(-c2ccc(C(F)(F)F)cc2)nc(NCCc2ccc(Cl)cc2Cl)n1)[C@@H]1CCCN1S(=O)(=O)c1ccc(F)cc1` [Example 195, 1-(4-Fluoro-benzenesulfonyl)-pyrrolidine-2S-carboxylic acid [2-[2-(2,4-dichloro-phenyl)-ethylamino]-6-(4-trifluoromethyl-phenyl)-pyrimidin-4-ylmethyl]-amide], the IC50 stood at 0.617 µM.

`CN1CCCC1CCNc1nc(CNC(=O)[C@@H]2CCCN2S(=O)(=O)c2ccc(F)cc2)cc(-c2ccc(C(F)(F)F)cc2)n1` (stereo partly drawn) [Example 196, 1-(4-Fluoro-benzenesulfonyl)-pyrrolidine-2S-carboxylic acid [2-[2-(1-methyl-pyrrolidin-2(R,S)-yl)-ethylamino]-6-(4-trifluoromethyl-phenyl)-pyrimidin-4-ylmethyl]-amide] had an IC50 of around 4.79 µM.

In turn, `COc1ccc(CCNc2nc(CNC(=O)[C@@H]3CCCN3S(=O)(=O)c3ccc(F)cc3)cc(-c3ccc(C(F)(F)F)cc3)n2)cc1OC` [Example 197, 1-(4-Fluoro-benzenesulfonyl)-pyrrolidine-2S-carboxylic acid [2-[2-(3,4-dimethoxy-phenyl)-ethylamino]-6-(4-trifluoromethyl-phenyl)-pyrimidin-4-ylmethyl]-amide] came in with an IC50 of around 1.15 µM.

`CN1CCCN(c2nc(CNC(=O)[C@@H]3CCCN3S(=O)(=O)c3ccc(F)cc3)cc(-c3ccc(C(F)(F)F)cc3)n2)CC1` [Example 198, 1-(4-Fluoro-benzenesulfonyl)-pyrrolidine-2S-carboxylic acid [2-(4-methyl-[1,4]diazepan-1-yl)-6-(4-trifluoromethyl-phenyl)-pyrimidin-4-ylmethyl]-amide] displayed a 50% inhibitory concentration (IC50) of around 3.02 µM.

Turning to `NS(=O)(=O)c1ccc(CCNc2nc(CNC(=O)[C@@H]3CCCN3S(=O)(=O)c3ccc(F)cc3)cc(-c3ccc(C(F)(F)F)cc3)n2)cc1` [Example 199, 1-(4-Fluoro-benzenesulfonyl)-pyrrolidine-2S-carboxylic acid [2-[2-(4-sulfamoyl-phenyl)-ethylamino]-6-(4-trifluoromethyl-phenyl)-pyrimidin-4-ylmethyl]-amide], the 50% inhibitory concentration (IC50) was around 3.31 µM.

`C#CCNc1nc(CNC(=O)[C@@H]2CCCN2S(=O)(=O)c2ccc(F)cc2)cc(-c2ccc3c(c2)OCO3)n1` [Example 200, 1-(4-Fluoro-benzenesulfonyl)-pyrrolidine-2S-carboxylic acid (6-benzo[1,3]dioxol-5-yl-2-prop-2-ynylamino-pyrimidin-4-ylmethyl)-amide] gave an IC50 of 3.31 µM.

Consider `O=C(NCc1cc(-c2ccc3c(c2)OCO3)nc(NCc2cccnc2)n1)[C@@H]1CCCN1S(=O)(=O)c1ccc(F)cc1` [Example 201, 1-(4-Fluoro-benzenesulfonyl)-pyrrolidine-2S-carboxylic acid {6-benzo[1,3]dioxol-5-yl-2-[(pyridin-3-ylmethyl)-amino]-pyrimidin-4-ylmethyl}-amide], for which the IC50 amounted to 8.13 µM.

`CCCCNc1nc(CNC(=O)[C@@H]2CCCN2S(=O)(=O)c2ccc(F)cc2)cc(-c2ccc3c(c2)OCO3)n1` [Example 202, 1-(4-Fluoro-benzenesulfonyl)-pyrrolidine-2S-carboxylic acid (6-benzo[1,3]dioxol-5-yl-2-butylamino-pyrimidin-4-ylmethyl)-amide] registered an IC50 of around 2.4 µM.

The compound `O=C(NCc1cc(-c2ccc3c(c2)OCO3)nc(NCCc2ccccn2)n1)[C@@H]1CCCN1S(=O)(=O)c1ccc(F)cc1` [Example 203, 1-(4-Fluoro-benzenesulfonyl)-pyrrolidine-2S-carboxylic acid [6-benzo[1,3]dioxol-5-yl-2-(2-pyridin-2-yl-ethylamino)-pyrimidin-4-ylmethyl]-amide] displayed a 50% inhibitory concentration (IC50) of around 6.46 µM.

For `O=C(NCc1cc(-c2ccc3c(c2)OCO3)nc(NC2CCCC2)n1)[C@@H]1CCCN1S(=O)(=O)c1ccc(F)cc1` [Example 204, 1-(4-Fluoro-benzenesulfonyl)-pyrrolidine-2S-carboxylic acid (6-benzo[1,3]dioxol-5-yl-2-cyclopentylamino-pyrimidin-4-ylmethyl)-amide], the 50% inhibitory concentration (IC50) is around 2.69 µM.

In the case of `CCOC(=O)C1CCN(c2nc(CNC(=O)[C@@H]3CCCN3S(=O)(=O)c3ccc(F)cc3)cc(-c3ccc4c(c3)OCO4)n2)CC1` [Example 205, 1-[4-Benzo[1,3]dioxol-5-yl-6-({[1-(4-fluoro-benzenesulfonyl)-pyrrolidine-2S-carbonyl]-amino}-methyl)-pyrimidin-2-yl]-piperidine-4-carboxylic acid ethyl ester], the half-inhibitory concentration (IC50) was around 1.78 µM.

With `O=C(NCc1cc(-c2ccc3c(c2)OCO3)nc(N2CCN(c3ccccn3)CC2)n1)[C@@H]1CCCN1S(=O)(=O)c1ccc(F)cc1` [Example 206, 1-(4-Fluoro-benzenesulfonyl)-pyrrolidine-2S-carboxylic acid [6-benzo[1,3]dioxol-5-yl-2-(4-pyridin-2-yl-piperazin-1-yl)-pyrimidin-4-ylmethyl]-amide], the IC50 is 4.47 µM.

The compound `O=C(NCc1cc(-c2ccc3c(c2)OCO3)nc(N2CCOCC2)n1)[C@@H]1CCCN1S(=O)(=O)c1ccc(F)cc1` [Example 207, 1-(4-Fluoro-benzenesulfonyl)-pyrrolidine-2S-carboxylic acid (6-benzo[1,3]dioxol-5-yl-2-morpholin-4-yl-pyrimidin-4-ylmethyl)-amide] showed a half-maximal inhibitory concentration (IC50) of 9.12 µM.

For the compound `O=C(NCc1cc(-c2ccc3c(c2)OCO3)nc(N2CCc3ccccc3C2)n1)[C@@H]1CCCN1S(=O)(=O)c1ccc(F)cc1` [Example 208, 1-(4-Fluoro-benzenesulfonyl)-pyrrolidine-2S-carboxylic acid [6-benzo[1,3]dioxol-5-yl-2-(3,4-dihydro-1H-isoquinolin-2-yl)-pyrimidin-4-ylmethyl]-amide], the IC50 was 2.29 µM.

Compound `C#CCNc1nc(CNC(=O)[C@@H]2CCCN2S(=O)(=O)c2ccc(F)cc2)cc(-c2ccc(Br)cc2)n1` [Example 209, 1-(4-Fluoro-benzenesulfonyl)-pyrrolidine-2S-carboxylic acid [6-(4-bromo-phenyl)-2-prop-2-ynylamino-pyrimidin-4-ylmethyl]-amide] yielded an IC50 of 1 µM.
